Reference: ChEMBL document CHEMBL2331362, “Identification of N-acyl 4-(5-pyrimidine-2,4-dionyl)phenylalanine derivatives and their orally active prodrug esters as dual-acting alpha4-beta1 and alpha4-beta7 receptor antagonists” (Bioorg Med Chem Lett, 2013)

Assays:
Integrin alpha-4/beta-1 [1] = biological target: T1, Integrin alpha-4/beta-1 (Homo sapiens, UniProt P05556+P13612); assay: Inhibition of human VCAM1 binding to integrin alpha4beta1 receptor in human Ramos cells labeled with Calcein AM; format: cell-based
T1 sequence (P05556 whole entry, one chain of several): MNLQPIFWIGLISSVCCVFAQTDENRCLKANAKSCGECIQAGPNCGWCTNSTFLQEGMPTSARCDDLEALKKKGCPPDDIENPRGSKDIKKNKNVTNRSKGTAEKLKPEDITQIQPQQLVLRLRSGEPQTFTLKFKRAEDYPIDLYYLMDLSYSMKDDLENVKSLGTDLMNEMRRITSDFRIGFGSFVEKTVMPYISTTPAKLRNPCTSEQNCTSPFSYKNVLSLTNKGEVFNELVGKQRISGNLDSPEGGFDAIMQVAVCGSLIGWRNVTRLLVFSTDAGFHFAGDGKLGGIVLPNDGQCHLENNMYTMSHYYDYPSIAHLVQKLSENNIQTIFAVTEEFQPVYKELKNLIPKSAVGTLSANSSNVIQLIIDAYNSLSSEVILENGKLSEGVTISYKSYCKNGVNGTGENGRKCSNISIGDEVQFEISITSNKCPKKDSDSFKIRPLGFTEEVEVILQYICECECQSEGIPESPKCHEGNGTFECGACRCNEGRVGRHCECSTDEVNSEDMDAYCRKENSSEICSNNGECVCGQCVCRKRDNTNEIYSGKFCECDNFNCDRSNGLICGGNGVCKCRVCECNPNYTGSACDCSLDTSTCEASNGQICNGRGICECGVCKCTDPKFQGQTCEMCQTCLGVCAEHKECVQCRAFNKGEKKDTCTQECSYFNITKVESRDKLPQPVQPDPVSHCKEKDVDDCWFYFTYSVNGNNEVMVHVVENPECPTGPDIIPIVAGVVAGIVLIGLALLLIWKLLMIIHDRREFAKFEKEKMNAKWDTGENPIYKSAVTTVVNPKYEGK

[2] = Mean residence time in cynomolgus monkey at 10 mg/kg, iv; format: ADME, organism-based, Macaca fascicularis; design: dose 10 mg/kg, route intravenous; settings: in vivo
[3] = AUC (0 to 8 hrs) in cynomolgus monkey at 10 mg/kg, iv; format: ADME, organism-based, Macaca fascicularis; design: time < 8 hr, dose 10 mg/kg, route intravenous; settings: plasma
[4] = Half life in cynomolgus monkey at 10 mg/kg, iv; format: ADME, organism-based, Macaca fascicularis; design: dose 10 mg/kg, route intravenous; settings: in vivo
[5] = AUC (0 to 8 hrs) in mouse at 10 mg/kg, iv; format: ADME, organism-based; design: time < 8 hr, dose 10 mg/kg, route intravenous; settings: plasma
[6] = Clearance in rat at 10 mg/kg, iv; format: ADME, organism-based; design: dose 10 mg/kg, route intravenous; settings: in vivo
[7] = AUC (0 to 8 hrs) in dog at 5 mg/kg, iv; format: ADME, organism-based, Canis lupus familiaris; design: time < 8 hr, dose 5 mg/kg, route intravenous; settings: plasma
Integrin alpha-4/beta-1 [8] = biological target: T1, Integrin alpha-4/beta-1; assay: Inhibition of human VCAM1 binding to integrin alpha4beta1 receptor in human Ramos cells labeled with Calcein AM relative to (S)-2-(2-chloro-6-methylbenzamido)-3-(4-(2,6-dichlorobenzamido)phenyl)propanoic acid; format: cell-based
[9] = Half life in dog at 5 mg/kg, iv; format: ADME, organism-based, Canis lupus familiaris; design: dose 5 mg/kg, route intravenous; settings: in vivo
[10] = Apparent permeability across human Caco2 cells; format: ADME, cell-based; settings: Caco-2
[11] = Clearance in cynomolgus monkey at 10 mg/kg, iv; format: ADME, organism-based, Macaca fascicularis; design: dose 10 mg/kg, route intravenous; settings: in vivo
[12] = AUC (0 to 8 hrs) in rat at 10 mg/kg, iv; format: ADME, organism-based; design: time < 8 hr, dose 10 mg/kg, route intravenous; settings: plasma
[13] = Mean residence time in dog at 5 mg/kg, iv; format: ADME, organism-based, Canis lupus familiaris; design: dose 5 mg/kg, route intravenous; settings: in vivo
[14] = Distribution coefficient, log D of the compound; format: physicochemical; settings: octanol/water
[15] = Clearance in dog at 5 mg/kg, iv; format: ADME, organism-based, Canis lupus familiaris; design: dose 5 mg/kg, route intravenous; settings: in vivo
[16] = biological target: Integrin alpha-4/beta-7 (Homo sapiens) (UniProt P13612+P26010); assay: Inhibition of human MAdCAM1 binding to integrin alpha4beta7 receptor in human RPMI 8866 cells labeled with Calcein AM relative to (S)-2-(2-chloro-6-methylbenzamido)-3-(4-(2,6-dichlorobenzamido)phenyl)propanoic acid; format: cell-based
[17] = Mean residence time in mouse at 10 mg/kg, iv; format: ADME, organism-based; design: dose 10 mg/kg, route intravenous; settings: in vivo
[18] = Clearance in mouse at 10 mg/kg, iv; format: ADME, organism-based; design: dose 10 mg/kg, route intravenous; settings: in vivo
[19] = Mean residence time in rat at 10 mg/kg, iv; format: ADME, organism-based; design: dose 10 mg/kg, route intravenous; settings: in vivo
Integrin alpha-4/beta-7 = biological target: T2, Integrin alpha-4/beta-7 (Homo sapiens, UniProt P13612+P26010); assay: Inhibition of human MAdCAM1 binding to integrin alpha4beta7 receptor in human RPMI 8866 cells labeled with Calcein AM; format: cell-based
T2 sequence (P13612 whole entry): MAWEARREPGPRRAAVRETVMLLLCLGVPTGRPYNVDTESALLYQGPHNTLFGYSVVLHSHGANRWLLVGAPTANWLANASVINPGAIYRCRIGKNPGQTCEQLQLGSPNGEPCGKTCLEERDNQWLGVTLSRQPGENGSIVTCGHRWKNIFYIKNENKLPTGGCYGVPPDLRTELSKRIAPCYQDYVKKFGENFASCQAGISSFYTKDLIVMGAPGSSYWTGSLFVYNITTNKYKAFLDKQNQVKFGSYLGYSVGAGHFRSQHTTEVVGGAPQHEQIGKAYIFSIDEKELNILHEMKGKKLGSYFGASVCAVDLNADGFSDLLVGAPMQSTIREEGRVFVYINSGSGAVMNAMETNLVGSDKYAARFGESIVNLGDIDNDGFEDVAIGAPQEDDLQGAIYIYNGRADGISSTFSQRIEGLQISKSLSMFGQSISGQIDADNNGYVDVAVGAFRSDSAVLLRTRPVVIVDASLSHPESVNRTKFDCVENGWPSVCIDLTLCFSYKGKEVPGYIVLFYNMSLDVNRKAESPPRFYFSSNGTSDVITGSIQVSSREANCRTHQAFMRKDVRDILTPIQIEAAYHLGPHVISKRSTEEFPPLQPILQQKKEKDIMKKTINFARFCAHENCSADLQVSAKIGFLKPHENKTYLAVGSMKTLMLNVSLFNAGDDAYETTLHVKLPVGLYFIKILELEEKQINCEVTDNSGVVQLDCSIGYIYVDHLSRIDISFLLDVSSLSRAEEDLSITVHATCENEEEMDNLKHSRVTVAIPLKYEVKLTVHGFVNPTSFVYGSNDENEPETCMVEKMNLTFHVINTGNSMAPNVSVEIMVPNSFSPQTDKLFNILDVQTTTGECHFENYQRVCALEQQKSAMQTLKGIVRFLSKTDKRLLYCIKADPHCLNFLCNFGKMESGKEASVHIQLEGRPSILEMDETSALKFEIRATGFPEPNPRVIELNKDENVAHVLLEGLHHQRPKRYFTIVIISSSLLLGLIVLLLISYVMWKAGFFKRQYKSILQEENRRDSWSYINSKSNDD
T2 sequence (P26010 whole entry): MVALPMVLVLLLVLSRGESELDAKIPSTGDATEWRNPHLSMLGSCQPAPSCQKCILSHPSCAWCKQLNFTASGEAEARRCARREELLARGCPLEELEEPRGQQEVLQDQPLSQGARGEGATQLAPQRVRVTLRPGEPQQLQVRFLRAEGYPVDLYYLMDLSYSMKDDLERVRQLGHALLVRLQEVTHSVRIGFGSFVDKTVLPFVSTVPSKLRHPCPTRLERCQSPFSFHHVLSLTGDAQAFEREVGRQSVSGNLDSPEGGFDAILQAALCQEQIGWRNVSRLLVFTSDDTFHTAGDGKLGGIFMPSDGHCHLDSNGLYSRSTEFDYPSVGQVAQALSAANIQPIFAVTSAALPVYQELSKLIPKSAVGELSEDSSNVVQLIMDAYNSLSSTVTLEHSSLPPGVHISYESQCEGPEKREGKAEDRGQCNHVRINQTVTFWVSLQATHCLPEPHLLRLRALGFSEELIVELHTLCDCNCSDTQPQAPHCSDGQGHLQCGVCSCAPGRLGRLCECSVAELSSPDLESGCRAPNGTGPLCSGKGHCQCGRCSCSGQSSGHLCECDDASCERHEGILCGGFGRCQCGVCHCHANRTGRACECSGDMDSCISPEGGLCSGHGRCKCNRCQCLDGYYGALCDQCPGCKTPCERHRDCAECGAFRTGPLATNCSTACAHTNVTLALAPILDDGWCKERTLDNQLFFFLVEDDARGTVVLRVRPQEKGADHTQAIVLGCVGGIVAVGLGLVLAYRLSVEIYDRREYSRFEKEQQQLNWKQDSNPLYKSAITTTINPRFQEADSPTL

- IC50 (Integrin alpha-4/beta-1 [1]): 18 nM
- MRT [2]: 15 min
- AUC(0-t) at 8 h [3]: 22200 ng·h/mL
- half-life [4]: 87.6 min
- AUC(0-t) at 8 h [5]: 7890 ng·h/mL
- clearance [6]: 4.8 mL/min/kg
- AUC(0-t) at 8 h [7]: 2790 ng·h/mL
- Ratio IC50 (Integrin alpha-4/beta-1 [8]): 3.2
- half-life [9]: 11.4 min
- Papp [10]: 0.77 ×10⁻⁶ cm/s
- clearance [11]: 6.88 mL/min/kg
- AUC(0-t) at 8 h [12]: 41500 ng·h/mL
- MRT [13]: 12.6 min
- logD [14]: -2.36
- clearance [15]: 29.7 mL/min/kg
- Ratio IC50 [16]: 3.3
- MRT [17]: 15.6 min
- clearance [18]: 21 mL/min/kg
- MRT [19]: 36.6 min
- IC50 (Integrin alpha-4/beta-7): 81 nM
SMILES: Cc1c(-c2ccc(C[C@H](NC(=O)c3c(F)cccc3F)C(=O)O)cc2)c(=O)n(C)c(=O)n1C
